Data from patent US20250051344A1, “BIFUNCTIONAL SELECTIVE DEGRADERS OF SMARCA2 AND THERAPEUTIC USES THEREOF” (Nurix Therapeutics, Inc., priority 2023, published 2025).

What was measured:
SMARCA2 = molecular target: T1, SMARCA2 (Homo sapiens, UniProt P51531); experiment: SMARCA2 Cellular Degradation Assay (Western blot analysis on Jess platform); type: cell-based; conditions: for DC50 / Dmax: cellular degradation; for Fold Selectivity SMARCA4/2: ratio DC50 SMARCA4 / DC50 SMARCA2
T1 construct: endogenous in cells
T1 sequence (P51531 whole entry, species assumed): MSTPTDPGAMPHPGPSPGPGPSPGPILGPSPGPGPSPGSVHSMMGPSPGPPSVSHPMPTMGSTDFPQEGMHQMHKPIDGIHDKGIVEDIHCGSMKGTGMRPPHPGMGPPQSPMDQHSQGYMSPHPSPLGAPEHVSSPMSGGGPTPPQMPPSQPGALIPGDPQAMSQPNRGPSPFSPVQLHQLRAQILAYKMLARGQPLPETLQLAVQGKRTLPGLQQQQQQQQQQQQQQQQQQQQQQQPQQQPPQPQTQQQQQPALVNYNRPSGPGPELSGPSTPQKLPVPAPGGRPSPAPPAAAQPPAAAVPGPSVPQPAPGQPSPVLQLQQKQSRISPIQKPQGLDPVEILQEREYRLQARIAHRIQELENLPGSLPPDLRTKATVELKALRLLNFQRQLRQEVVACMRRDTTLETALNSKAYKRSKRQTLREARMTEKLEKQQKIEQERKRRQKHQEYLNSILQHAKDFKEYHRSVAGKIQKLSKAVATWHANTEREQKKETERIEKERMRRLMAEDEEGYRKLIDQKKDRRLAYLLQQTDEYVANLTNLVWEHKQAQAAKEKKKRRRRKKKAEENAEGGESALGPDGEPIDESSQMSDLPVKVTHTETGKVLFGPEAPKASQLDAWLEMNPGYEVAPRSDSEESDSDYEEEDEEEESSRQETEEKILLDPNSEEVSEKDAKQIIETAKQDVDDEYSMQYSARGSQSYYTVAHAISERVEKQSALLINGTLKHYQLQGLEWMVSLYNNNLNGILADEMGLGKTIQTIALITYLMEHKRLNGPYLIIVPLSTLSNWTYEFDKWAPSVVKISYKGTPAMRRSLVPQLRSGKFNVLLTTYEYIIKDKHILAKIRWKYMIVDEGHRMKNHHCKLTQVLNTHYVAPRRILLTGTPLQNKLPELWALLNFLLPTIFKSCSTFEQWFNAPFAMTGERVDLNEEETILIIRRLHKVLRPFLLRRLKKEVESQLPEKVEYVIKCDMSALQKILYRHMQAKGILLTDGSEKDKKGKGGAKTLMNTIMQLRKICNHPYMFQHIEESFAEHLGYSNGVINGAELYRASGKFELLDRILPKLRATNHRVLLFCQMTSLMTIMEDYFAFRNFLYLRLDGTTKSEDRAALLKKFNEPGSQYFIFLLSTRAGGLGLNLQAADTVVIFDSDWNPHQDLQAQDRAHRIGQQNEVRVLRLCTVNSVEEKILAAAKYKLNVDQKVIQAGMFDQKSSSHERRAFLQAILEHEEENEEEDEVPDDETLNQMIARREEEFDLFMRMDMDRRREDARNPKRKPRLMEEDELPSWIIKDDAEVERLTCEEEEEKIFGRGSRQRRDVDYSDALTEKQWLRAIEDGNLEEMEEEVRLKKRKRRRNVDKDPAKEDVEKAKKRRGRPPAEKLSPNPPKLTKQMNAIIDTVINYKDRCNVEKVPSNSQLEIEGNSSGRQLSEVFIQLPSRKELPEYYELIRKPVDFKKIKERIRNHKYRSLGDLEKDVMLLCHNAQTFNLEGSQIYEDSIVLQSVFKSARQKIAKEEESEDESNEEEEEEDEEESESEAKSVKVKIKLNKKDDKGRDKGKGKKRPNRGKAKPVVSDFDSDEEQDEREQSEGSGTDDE
Procedure, shortened: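 Percent SMARCA2 remaining relative to vehicle was derived from capillary Western peak areas, each normalized to β-actin after capillary background subtraction. Samples were tumor-derived cell lysates, 5 μg total protein loaded, heated at 95° C. for 5 minutes before the Jess run.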

SMARCA4 = molecular target: T2, SMARCA4 (Homo sapiens, UniProt P51532); experiment: Cellular degradation assay, SMARCA4 (Table 1); type: cell-based
T2 construct: endogenous in cells
T2 sequence (P51532 whole entry, species assumed): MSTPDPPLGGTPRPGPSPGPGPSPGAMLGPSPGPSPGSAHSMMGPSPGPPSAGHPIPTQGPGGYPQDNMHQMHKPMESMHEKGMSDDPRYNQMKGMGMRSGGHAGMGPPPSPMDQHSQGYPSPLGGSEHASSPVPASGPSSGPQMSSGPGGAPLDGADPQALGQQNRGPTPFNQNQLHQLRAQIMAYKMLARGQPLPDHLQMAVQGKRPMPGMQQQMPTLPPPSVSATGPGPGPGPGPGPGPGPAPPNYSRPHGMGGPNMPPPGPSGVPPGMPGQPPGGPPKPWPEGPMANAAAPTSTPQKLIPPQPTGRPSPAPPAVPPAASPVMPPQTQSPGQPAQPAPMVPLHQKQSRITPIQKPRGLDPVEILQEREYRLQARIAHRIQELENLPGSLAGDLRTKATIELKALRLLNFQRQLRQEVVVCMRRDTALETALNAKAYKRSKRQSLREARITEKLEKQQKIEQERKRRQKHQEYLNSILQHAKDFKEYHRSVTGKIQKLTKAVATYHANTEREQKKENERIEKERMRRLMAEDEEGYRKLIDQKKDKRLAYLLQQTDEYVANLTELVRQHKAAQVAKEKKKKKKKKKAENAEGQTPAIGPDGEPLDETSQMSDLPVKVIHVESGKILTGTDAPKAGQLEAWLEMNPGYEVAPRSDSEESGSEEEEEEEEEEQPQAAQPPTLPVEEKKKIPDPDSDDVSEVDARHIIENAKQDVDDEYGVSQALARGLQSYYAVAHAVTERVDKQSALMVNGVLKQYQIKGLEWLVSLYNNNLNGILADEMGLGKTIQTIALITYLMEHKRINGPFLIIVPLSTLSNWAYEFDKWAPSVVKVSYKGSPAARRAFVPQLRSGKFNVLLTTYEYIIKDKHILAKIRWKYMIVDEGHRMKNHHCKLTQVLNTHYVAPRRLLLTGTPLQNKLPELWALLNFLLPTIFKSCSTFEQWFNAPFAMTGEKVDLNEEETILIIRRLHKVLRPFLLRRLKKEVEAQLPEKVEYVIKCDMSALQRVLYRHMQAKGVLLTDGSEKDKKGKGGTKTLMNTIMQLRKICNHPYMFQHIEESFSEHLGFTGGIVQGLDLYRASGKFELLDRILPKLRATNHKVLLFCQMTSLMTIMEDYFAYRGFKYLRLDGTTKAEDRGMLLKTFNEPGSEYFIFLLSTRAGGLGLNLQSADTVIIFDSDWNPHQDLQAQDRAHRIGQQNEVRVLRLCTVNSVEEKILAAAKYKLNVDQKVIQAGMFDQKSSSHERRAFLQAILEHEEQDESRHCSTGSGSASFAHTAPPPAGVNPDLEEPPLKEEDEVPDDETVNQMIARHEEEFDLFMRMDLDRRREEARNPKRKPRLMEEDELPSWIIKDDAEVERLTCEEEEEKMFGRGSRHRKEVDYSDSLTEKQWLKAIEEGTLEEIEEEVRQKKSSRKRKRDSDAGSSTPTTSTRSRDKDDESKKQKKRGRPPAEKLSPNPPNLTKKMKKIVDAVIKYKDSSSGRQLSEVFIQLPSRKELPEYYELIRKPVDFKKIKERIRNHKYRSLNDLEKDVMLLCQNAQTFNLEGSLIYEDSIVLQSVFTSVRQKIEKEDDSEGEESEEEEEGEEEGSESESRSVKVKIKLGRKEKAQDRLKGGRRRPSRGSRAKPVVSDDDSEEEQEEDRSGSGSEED

SMILES | DC50 (SMARCA2) | Dmax (SMARCA2) | Fold Selectivity SMARCA4/2 (SMARCA2) | DC50 (SMARCA4) | Dmax (SMARCA4)
O=C1CC[C@H](c2ccc(N3CCC(CNC4CC5CCCC(C4)C5NC(=O)C4(c5ccccc5)CCN(c5cnnc(-c6ccccc6O)c5)CC4)CC3)cc2)C(=O)N1 (stereo partly drawn) [Example 49, N-(3-{[(1-{4-[(3R)-2,6-dioxopiperidin-3-yl]phenyl}piperidin-4-yl)methyl]amino}bicyclo[3.3.1]nonan-9-yl)-1-[6-(2-hydroxyphenyl)pyridazin-4-yl]-4-phenylpiperidine-4-carboxamide] | 26.4 nM | 76.9% | 6.52 | 172 nM | 59.8%
CC1CC2CN(CC3CCN(c4ccc([C@H]5CCC(=O)NC5=O)cc4)CC3)CC2N1C(=O)C1(c2ccccc2)CCN(c2cnnc(-c3ccccc3O)c2)CC1 (stereo partly drawn) [Example 50, (3R)-3-(4-{4-[(1-{1-[6-(2-hydroxyphenyl)pyridazin-4-yl]-4-phenylpiperidine-4-carbonyl}-2-methyl-hexahydropyrrolo[2,3-c]pyrrol-5-yl)methyl]piperidin-1-yl}phenyl)piperidine-2,6-dione] | 136 nM | 53.4% | 73.54 |  | 20.2%
O=C1CC[C@H](c2ccc(N3CCC(CN4CCC5CN(C(=O)C6(c7ccccc7)CCN(c7cnnc(-c8ccccc8O)c7)CC6)C5C4)CC3)cc2)C(=O)N1 (stereo partly drawn) [Example 51, (3R)-3-(4-{4-[(8-{1-[6-(2-hydroxyphenyl)pyridazin-4-yl]-4-phenylpiperidine-4-carbonyl}-3,8-diazabicyclo[4.2.0]octan-3-yl)methyl]piperidin-1-yl}phenyl)piperidine-2,6-dione] |  | 26.7% | 1 |  | 0.85%
O=C1CC[C@H](c2ccc(N3CCC(CN4CC(F)(F)C5(C4)CN(C(=O)C4(c6ccccc6)CCN(c6cnnc(-c7ccccc7O)c6)CC4)C5)CC3)cc2)C(=O)N1 [Example 52, (3R)-3-(4-{4-[(8,8-difluoro-2-{1-[6-(2-hydroxyphenyl)pyridazin-4-yl]-4-phenylpiperidine-4-carbonyl}-2,6-diazaspiro[3.4]octan-6-yl)methyl]piperidin-1-yl}phenyl)piperidine-2,6-dione] |  | 44% | 1 |  | 13.7%
O=C1CC[C@H](c2ccc(N3CCC(CN4CCN(C(=O)C5(c6ccccc6)CCN(c6cnnc(-c7ccccc7O)c6)CC5)CCC4C(F)(F)F)CC3)cc2)C(=O)N1 (stereo partly drawn) [Example 53, (3R)-3-(4-(4-((4-(1-(6-(2-hydroxyphenyl)pyridazin-4-yl)-4-phenylpiperidine-4-carbonyl)-7-(trifluoromethyl)-1,4-diazepan-1-yl)methyl)piperidin-1-yl)phenyl)piperidine-2,6-dione] |  | 47.2% | 1 |  | 9.06%
O=C1CC[C@H](c2ccc(N3CCC(CCN4CCC(N(C(=O)C5(c6ccccc6)CCN(c6cnnc(-c7ccccc7O)c6)CC5)C5CC5)CC4)CC3)cc2)C(=O)N1 [Example 74, N-cyclopropyl-N-{1-[2-(1-{4-[(3r)-2,6-dioxopiperidin-3-yl]phenyl}piperidin-4-yl)ethyl]piperidin-4-yl}-1-[6-(2-hydroxyphenyl)pyridazin-4-yl]-4-phenylpiperidine-4-carboxamide] | 1.88 nM | 94.2% | 32 | 59.3 nM | 69.2%
COc1ccccc1C1(C(=O)N(C)C2CCN(CCC3CCN(c4ccc([C@H]5CCC(=O)NC5=O)c(F)c4)CC3)CC2)CCN(c2cnnc(-c3ccccc3O)c2)CC1 [Example 85, N-{1-[2-(1-{4-[(3R)-2,6-dioxopiperidin-3-yl]-3-fluorophenyl}piperidin-4-yl)ethyl]piperidin-4-yl}-1-[6-(2-hydroxyphenyl)pyridazin-4-yl]-4-(2-methoxyphenyl)-N-methylpiperidine-4-carboxamide] | 8.19 nM | 90.9% | 1220 |  | 41.9%
CCCN(C(=O)C1(c2ccccc2)CCN(c2cnnc(-c3ccccc3O)c2)CC1)C1CCN(CCC2CCN(c3ccc([C@H]4CCC(=O)NC4=O)cc3)CC2)CC1 [Example 100, N-{1-[2-(1-{4-[(3R)-2,6-dioxopiperidin-3-yl]phenyl}piperidin-4-yl)ethyl]piperidin-4-yl}-1-[6-(2-hydroxyphenyl)pyridazin-4-yl]-4-phenyl-n-propylpiperidine-4-carboxamide] | 3.4 nM | 92.4% | 34 | 115 nM | 66.4%
CN(C(=O)C1(OC2CC2)CCN(c2cnnc(-c3ccccc3O)c2)CC1)C1CCN(CC2CCN(c3ccc([C@H]4CCC(=O)NC4=O)cc3)CC2)CC1 [Example 114, (r)-4-cyclopropoxy-n-(1-((1-(4-(2,6-dioxopiperidin-3-yl)phenyl)piperidin-4-yl)methyl)piperidin-4-yl)-1-(6-(2-hydroxyphenyl)pyridazin-4-yl)-n-methylpiperidine-4-carboxamide] | 9.94 nM | 78.6% | 1006 |  | 49.9%
O=C1CC[C@H](c2ccc(N3CCC(CN4CC5(C4)CN(C(=O)C4(Oc6ccccc6Cl)CCN(c6cnnc(-c7ccccc7O)c6)CC4)C5)CC3)cc2)C(=O)N1 [Example 119, (r)-3-(4-(4-((6-(4-(2-chlorophenoxy)-1-(6-(2-hydroxyphenyl)pyridazin-4-yl)piperidine-4-carbonyl)-2,6-diazaspiro[3.3]heptan-2-yl)methyl)piperidin-1-yl)phenyl)piperidine-2,6-dione] | 3.52 nM | 89.2% | 6 | 20.3 nM | 79.4%
COC1(C(=O)N2CCC3(CC2)CN(CC2CCN(c4ccc([C@H]5CCC(=O)NC5=O)cc4)CC2)C3)CCN(c2cnnc(-c3ccccc3O)c2)CC1 [Example 120, (r)-3-(4-(4-((7-(1-(6-(2-hydroxyphenyl)pyridazin-4-yl)-4-methoxypiperidine-4-carbonyl)-2,7-diazaspiro[3.5]nonan-2-yl)methyl)piperidin-1-yl)phenyl)piperidine-2,6-dione] | 7.6 nM | 78.4% | 1316 |  | 50%
Cn1nc(N2CCC(=O)NC2=O)c2cccc(N3CCC(CN4CC5(C4)CN(C(=O)C4(c6ccccc6)CCN(c6cnnc(-c7ccccc7O)c6)CC4)C5)CC3)c21 [Example 123, 1-(7-{4-[(6-{1-[6-(2-hydroxyphenyl)pyridazin-4-yl]-4-phenylpiperidine-4-carbonyl}-2,6-diazaspiro[3.3]heptan-2-yl)methyl]piperidin-1-yl}-1-methyl-1H-indazol-3-yl)-1,3-diazinane-2,4-dione] | 68.1 nM | 66.8% | 147 |  | 35%
CN(C(=O)C1(Oc2ccn(C)n2)CCN(c2cnnc(-c3ccccc3O)c2)CC1)C1CCN(CC2CCN(c3ccc([C@H]4CCC(=O)NC4=O)cc3)CC2)CC1 [Example 125, (r)-n-(1-((1-(4-(2,6-dioxopiperidin-3-yl)phenyl)piperidin-4-yl)methyl)piperidin-4-yl)-1-(6-(2-hydroxyphenyl)pyridazin-4-yl)-n-methyl-4-((1-methyl-1h-pyrazol-3-yl)oxy)piperidine-4-carboxamide] | 6.01 nM | 82% | 6 | 36.9 nM | 62.5%
COc1ccccc1C1(C(=O)N(C)C2CCN(CC3CCN(c4ccc([C@H]5CCC(=O)NC5=O)cc4)CC3)CC2)CCN(c2cnnc(-c3ccccc3O)c2)CC1 [Example 133, N-{1-[(1-{4-[(3R)-2,6-dioxopiperidin-3-yl]phenyl}piperidin-4-yl)methyl]piperidin-4-yl}-1-[6-(2-hydroxyphenyl)pyridazin-4-yl]-4-(2-methoxyphenyl)-n-methylpiperidine-4-carboxamide] | 2.5 nM | 90.5% | 8 | 20.5 nM | 74.8%
O=C1CC[C@@H](c2ccc(N3CCC(CN4CCC(NCC5(c6ccccc6)CCN(c6cnnc(-c7ccccc7O)c6)CC5)CC4)CC3)cc2)C(=O)N1 [Example 135, (s)-3-(4-(4-((4-(((1-(6-(2-hydroxyphenyl)pyridazin-4-yl)-4-phenylpiperidin-4-yl)methyl)amino)piperidin-1-yl)methyl)piperidin-1-yl)phenyl)piperidine-2,6-dione] | 20.7 nM | 74.2% | 9 | 191 nM | 61.9%
COc1cccc(C2(C(=O)N(C)C3CCN(CCC4CCN(c5ccc([C@H]6CCC(=O)NC6=O)cc5)CC4)CC3)CCN(c3cnnc(-c4ccccc4O)c3)CC2)c1 [Example 139, N-{1-[2-(1-{4-[(3R)-2,6-dioxopiperidin-3-yl]phenyl}piperidin-4-yl)ethyl]piperidin-4-yl}-1-[6-(2-hydroxyphenyl)pyridazin-4-yl]-4-(3-methoxyphenyl)-N-methylpiperidine-4-carboxamide] | 4.55 nM | 89.2% | 37 | 167 nM | 54%
CN(C(=O)C1(c2ccncc2)CCN(c2cnnc(-c3ccccc3O)c2)CC1)C1CCN(CCC2CCN(c3ccc([C@H]4CCC(=O)NC4=O)cc3)CC2)CC1 [Example 140, N-{1-[2-(1-{4-[(3R)-2,6-dioxopiperidin-3-yl]phenyl}piperidin-4-yl)ethyl]piperidin-4-yl}-1-[6-(2-hydroxyphenyl)pyridazin-4-yl]-N-methyl-4-(pyridin-4-yl)piperidine-4-carboxamide] | 3.79 nM | 86.9% | 2641 |  | 31.2%
